Literature values as cited in patent publication US6713069B1, “Compositions and methods for detecting, preventing, and treating African Hemorrhagic Fever” (Board of Supervisors of Louisiana State University and …, priority 1996, dated 2004).

Test system: HIV

Substance: enfuvirtide
- inhibition of HIV infection and fusion: inhibit HIV infection and fusion at very low dosages
